Target mRNA inhibition data for 88 sequences are collected here from the OligoGym collection.

“And” between values parts separate entries of the source, which are not always exact repeats. Identical values can stand only once. After the bases stand the sugars from the 5' end (letter, count) and the backbone: PS all phosphorothioate, else s phosphorothioate and o phosphodiester by linkage. Methylation of C is not given here. e = 2'-O-(2-methoxyethyl) (MOE); k = constrained ethyl (cEt); d = 2'-deoxy (DNA)

The target of the first data set is IRF4. The conditions noted are these: ASO, MM.1R, 0.0625 µM.
Regarding TCTGTATAGTTCTCAA (sugars k3 d10 k3, PS), the target mRNA inhibition is -2% and 0%. The same measure, in the same setting: the same measure for TGGAGATACTTGTACT (sugars k3 d10 k3, PS): -15%; for TGGATTGCTGATGTGT (sugars k3 d10 k3, PS): 45%.

The data set is the same for the next values; noted with them: ASO, MM.1R, 0.074 µM.
“TCTATAGTGTTCCAGG (sugars e1 k2 d9 k2 e2, PS)”: the target mRNA inhibition was determined as 22%. Same read-out and setting: the same measure for “TCTATAGTGTTCCAGG (sugars kkddddddddddkeke, PS)”: 15%.

The data set is the same for the next values; noted with them: ASO, MM.1R, 0.222 µM.
As to “TCTATAGTGTTCCAGG (sugars e1 k2 d9 k2 e2, PS)”, the target mRNA inhibition amounted to 33%.

Turning to “TCTATAGTGTTCCAGG (sugars kkddddddddddkeke, PS)”, the target mRNA inhibition was 32%.

Staying with this data set, now noted: ASO, MM.1R, 0.25 µM.
In the case of TCTGTATAGTTCTCAA (sugars k3 d10 k3, PS), the target mRNA inhibition was 16% and 26%. Still for that read-out and setting: the same measure for TGGAGATACTTGTACT (sugars k3 d10 k3, PS): -7%; for TGGATTGCTGATGTGT (sugars k3 d10 k3, PS): 58%.

The same data set, now with this note: ASO, MM.1R, 0.666 µM.
As for “TCTATAGTGTTCCAGG (sugars e1 k2 d9 k2 e2, PS)”, the target mRNA inhibition came out at 52%. On the same count and under the same terms, in the case of “TCTATAGTGTTCCAGG (sugars kkddddddddddkeke, PS)” it was 58%.

The same data set, now with this note: ASO, MM.1R, 1 µM.
For “TCAGTTTGTGAAGCAT (sugars kkddddddddddkeke, PS)”, the target mRNA inhibition turned out to be 33%. As to “TCAGTTTGTGAAGCAT (sugars kkkdddddddddkeke, PS)”, the target mRNA inhibition was found to be 53%. Still for that read-out and setting: in the case of TCATCCGAAAAGACTG (sugars k3 d10 k3, PS) it was 16%.

TCATTAGAAAGCCCTC (sugars k3 d10 k3, PS): the target mRNA inhibition is -19%. Still for that read-out and setting: in the case of TCCAACCCTAGATAAC (sugars k3 d10 k3, PS) it was -5%; in that of TCCGAAAAGACTGGAG (sugars k3 d10 k3, PS), -7%; in that of TCCGGGTGTGGCTGAT (sugars k3 d10 k3, PS), 26%. The same measure, in the same setting: the same measure for TCGGAGCGACCCAAAT (sugars k3 d10 k3, PS): 12%; for “TCTATAGTGTTCCAGG (sugars e1 k2 d9 k2 e2, PS)”: 58%. On to “TCTATAGTGTTCCAGG (sugars k3 d9 k3 e1, PS)”, for which the target mRNA inhibition turned out to be 52%. On the same count and under the same terms, in the case of “TCTATAGTGTTCCAGG (sugars kddddddddddkekek, PS)” it was 16%; in that of “TCTATAGTGTTCCAGG (sugars kkddddddddddkeke, PS)”, 66%. On the same count and under the same terms, the same measure for TCTCCAAAGCATAGAG (sugars k3 d10 k3, PS): -8%; for TCTGGATTGCTGATGT (sugars k3 d10 k3, PS): 36%. Still for that read-out and setting: in the case of TCTGTATAGTTCTCAA (sugars k3 d10 k3, PS) it was 42% and 40%.

In the case of TGAACGGAAGTTTACA (sugars k3 d10 k3, PS), the target mRNA inhibition worked out at 14%. The same measure, in the same setting: the same measure for TGAGATATTCCTCTCA (sugars k3 d10 k3, PS): 18%. On to “TGATAGCTGAGCTGAT (sugars kkddddddddddkeke, PS)”, for which the target mRNA inhibition was -17%. Same read-out and setting: the same measure for “TGATGTGATAGCTGAG (sugars k2 d9 e3 k2, PS)”: 47%; for “TGATGTGATAGCTGAG (sugars kddddddddddkekek, PS)”: 18%; for “TGATGTGATAGCTGAG (sugars kkddddddddddkeke, PS)”: 54%.

For “TGATGTGATAGCTGAG (sugars kkdddddddddekeke, PS)”, the target mRNA inhibition was 60%.

On to “TGATGTGATAGCTGAG (sugars kkdddddddddkdkdk, PS)”, for which the target mRNA inhibition turned out to be 14%.

In the case of “TGCTTGAGGTTTTCCT (sugars kddddddddddkekek, PS)”, the target mRNA inhibition came to 36%. On the same count and under the same terms, in the case of “TGCTTGAGGTTTTCCT (sugars kkddddddddddkeke, PS)” it was 33%; in that of “TGCTTGAGGTTTTCCT (sugars kkdddddddddkekek, PS)”, 36%. The same measure, in the same setting: the same measure for TGGAGATACTTGTACT (sugars k3 d10 k3, PS): 42% and 21%; for TGGATCCTGAGAGTAA (sugars k3 d10 k3, PS): 0%; for TGGATTGATGTGATAG (sugars k3 d10 k3, PS): 48%. Turning to TGGATTGCTGATGTGT (sugars k3 d10 k3, PS), the target mRNA inhibition was 71% and 75%. The same measure, in the same setting: the same measure for TGGCATGCGAATGTGC (sugars k3 d10 k3, PS): -21%. Regarding “TGGTTGGCTGGTCTTT (sugars kdddddddddkekeke, PS)”, the target mRNA inhibition stood at 31%. As for “TGGTTGGCTGGTCTTT (sugars kkdddddddddekeke, PS)”, the target mRNA inhibition amounted to 60%.

On to “TGGTTGGCTGGTCTTT (sugars kkdddddddddkekek, PS)”, for which the target mRNA inhibition was determined as 44%.

The data set is the same for the next values; noted with them: ASO, MM.1R, 2 µM.
For the sequence “TCTATAGTGTTCCAGG (sugars e1 k2 d9 k2 e2, PS)”, the target mRNA inhibition was determined as 74%.

Regarding “TCTATAGTGTTCCAGG (sugars kkddddddddddkeke, PS)”, the target mRNA inhibition worked out at 83%.

Staying with this data set, now noted: ASO, MM.1R, 4 µM.
As for TCTGTATAGTTCTCAA (sugars k3 d10 k3, PS), the target mRNA inhibition was 69% and 71%. The same measure, in the same setting: in the case of TGGAGATACTTGTACT (sugars k3 d10 k3, PS) it was 58%; in that of TGGATTGCTGATGTGT (sugars k3 d10 k3, PS), 90%.

The same data set, now with this note: ASO, SK-MEL-28, 4 µM.
Turning to TCAATGATGGCAGTCT (sugars k3 d10 k3, PS), the target mRNA inhibition came out at 54%. Same read-out and setting: the same measure for TCAATGGGAATCACAG (sugars k3 d10 k3, PS): 40%. In the case of TCACAGGTAAGGGCCC (sugars k3 d10 k3, PS), the target mRNA inhibition was determined as 47%.

With TCACTATTAAACAGCA (sugars k3 d10 k3, PS), the target mRNA inhibition came to 16%. On to TCACTTGCCGCCGCCT (sugars k3 d10 k3, PS), for which the target mRNA inhibition was found to be 49%. Same read-out and setting: in the case of TCAGATACACACCCTC (sugars k3 d10 k3, PS) it was 37%; in that of TCAGTTGTAAATGAGT (sugars k3 d10 k3, PS), 72%. In the case of TCATATGGCTAAACCT (sugars k3 d10 k3, PS), the target mRNA inhibition is 49%. Same read-out and setting: in the case of TCCAACAGGCGGACAC (sugars k3 d10 k3, PS) it was 29%; in that of TCCACTTCTGAATTCC (sugars k3 d10 k3, PS), 19%. On to TCCACTTTATCAAGAC (sugars k3 d10 k3, PS), for which the target mRNA inhibition amounted to 65%. On to TCCATATGACCCAGTG (sugars k3 d10 k3, PS), for which the target mRNA inhibition is 66%. The same measure, in the same setting: in the case of TCCCAAGATCGAGCGG (sugars k3 d10 k3, PS) it was 16%; in that of TCCCAGAGTTGTTCCA (sugars k3 d10 k3, PS), 26%. The same measure, in the same setting: the same measure for TCCTAAATCACCCTGG (sugars k3 d10 k3, PS): 21%; for TCCTCCTCGCGGTTGT (sugars k3 d10 k3, PS): 59%.

On to TCCTGAATTTACAGCA (sugars k3 d10 k3, PS), for which the target mRNA inhibition was 48%. Same read-out and setting: the same measure for TCGCAGGAGCGCGGAG (sugars k3 d10 k3, PS): -37%; for TCTAATGGTGCTCCTA (sugars k3 d10 k3, PS): 51%.

As to TCTGTAGGGCGACTAA (sugars k3 d10 k3, PS), the target mRNA inhibition was 65%.

On to TCTTCCAGCAAGACCT (sugars k3 d10 k3, PS), for which the target mRNA inhibition is 28%. Same read-out and setting: in the case of TCTTGAATAGAGGAAT (sugars k3 d10 k3, PS) it was 42%; in that of TCTTTGAAGTGCTGTG (sugars k3 d10 k3, PS), 57%. Same read-out and setting: in the case of TCTTTTTAGTTCATAC (sugars k3 d10 k3, PS) it was 26%; in that of TGAAAGACCCCAGCTA (sugars k3 d10 k3, PS), 4%; in that of TGAAATGTCAAACCCT (sugars k3 d10 k3, PS), 54%. The same measure, in the same setting: in the case of TGAATAGAGGAATGGC (sugars k3 d10 k3, PS) it was 21%. As to TGACAAGAACTGCTGT (sugars k3 d10 k3, PS), the target mRNA inhibition is 18%. Same read-out and setting: in the case of TGACATCATTTAGGTA (sugars k3 d10 k3, PS) it was 54%; in that of TGACATGCTTTGTCCT (sugars k3 d10 k3, PS), 59%; in that of TGAGAGACGAAAACAG (sugars k3 d10 k3, PS), -9%.

In the case of TGATAGTGGTGATGTC (sugars k3 d10 k3, PS), the target mRNA inhibition is 54%. On the same count and under the same terms, in the case of TGCAACTGGCTCACTA (sugars k3 d10 k3, PS) it was 17%; in that of TGCAAGTATGTAGCAA (sugars k3 d10 k3, PS), 3%. With TGCATCTATAAGATGT (sugars k4 d8 k4, PS), the target mRNA inhibition was determined as 10%. The same measure, in the same setting: in the case of TGCCAATCAGATGTCA (sugars k3 d10 k3, PS) it was 22%; in that of TGCCTAGGACTAAGGA (sugars k3 d10 k3, PS), 26%; in that of TGCGAAGAATTTTAGC (sugars k3 d10 k3, PS), 41%.

Regarding TGCTACTGCGGACATC (sugars k3 d10 k3, PS), the target mRNA inhibition came to 43%. The same measure, in the same setting: in the case of TGCTAGGACACAGCTG (sugars k3 d10 k3, PS) it was 43%; in that of TGCTTGAGGTTTTCCT (sugars k3 d10 k3, PS), 80% and 76%; in that of TGGAACAGTAACTTGA (sugars k3 d10 k3, PS), 12%. On the same count and under the same terms, the same measure for TGGAACTCATAGGTGT (sugars k3 d10 k3, PS): 62%.

For TGGAACTCTAGTGTCC (sugars k3 d10 k3, PS), the target mRNA inhibition turned out to be 2%. Same read-out and setting: the same measure for TGGAGGTCTTTGGGAT (sugars k3 d10 k3, PS): 58%; for TGGATCTGAATTGTTA (sugars k3 d10 k3, PS): 55%. Still for that read-out and setting: in the case of TGGCACAGTCTTTTCG (sugars k3 d10 k3, PS) it was 28%; in that of TGGCAGTCTACAGAAC (sugars k3 d10 k3, PS), -22%; in that of TGGCTAGCAGAGGTTC (sugars k4 d8 k4, PS), 9%. As to TGGTAACTGTATGGAA (sugars k3 d10 k3, PS), the target mRNA inhibition worked out at 48%. Take TGGTAATCTTCTGGAT (sugars k3 d10 k3, PS): the target mRNA inhibition turned out to be 24%.

As for TGTAACTCTGAGTAGA (sugars k3 d10 k3, PS), the target mRNA inhibition was found to be 43%. The same measure, in the same setting: in the case of TGTAACTGAGGACTCA (sugars k3 d10 k3, PS) it was -2%; in that of TGTAAGGGCTGCTCAT (sugars k3 d10 k3, PS), 49%.
